Reference: US20240109873A1, “ANTAGONISTS OF THE MUSCARINIC ACETYLCHOLINE RECEPTOR M4” (Vanderbilt University, priority 2020, published 2024)

Target: T1, human mAChR M4 (Homo sapiens, UniProt P08173)
T1 construct: expressed in transfected cells; host or cells: CHO-K1 (ATCC), co-transfected with chimeric G protein Gqi5
T1 sequence (P08173 1-479): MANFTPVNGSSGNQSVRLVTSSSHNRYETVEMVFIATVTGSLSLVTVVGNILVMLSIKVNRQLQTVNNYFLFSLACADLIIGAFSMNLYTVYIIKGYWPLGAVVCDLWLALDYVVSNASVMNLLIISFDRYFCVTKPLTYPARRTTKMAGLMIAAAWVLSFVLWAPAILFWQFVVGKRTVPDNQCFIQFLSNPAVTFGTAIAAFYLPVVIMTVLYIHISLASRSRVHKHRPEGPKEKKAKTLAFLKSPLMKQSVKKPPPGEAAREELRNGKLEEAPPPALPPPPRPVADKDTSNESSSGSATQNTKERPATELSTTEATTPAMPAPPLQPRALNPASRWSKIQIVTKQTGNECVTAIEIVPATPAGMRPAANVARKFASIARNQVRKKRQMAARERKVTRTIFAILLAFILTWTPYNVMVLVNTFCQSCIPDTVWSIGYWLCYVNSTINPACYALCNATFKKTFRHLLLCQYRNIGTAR
Assay: mAChR M4 cell-based functional assay (calcium flux, antagonism of EC80 acetylcholine response, M4/Gqi5/CHO-K1 cells)
Details: for remaining activity at 30 µM: CHO-K1, % ACh maximum at 30 μM, read-out: Human M4 Emin; for IC50: decrease of the response elicited by an EC80 concentration of acetylcholine, CHO-K1 cells, Gqi5
Procedure: Human or rat M4 cDNA, along with the chimeric G protein Gqi5, were transfected into Chinese hamster ovary (CHO-K1) cells purchased from the American Type Culture Collection using Lipofectamine2000. M4/Gqi5/CHO cells were grown in Ham's F-12 medium containing 10% heat-inactivated fetal bovine serum (FBS), 20 mM HEPES, 500 μg/mL G418 sulfate, and 200 μg/mL Hygromycin B.
For high throughput measurement of agonist-evoked increases in intracellular calcium, CHO-K1 cells stably expressing muscarinic receptors were plated in growth medium lacking G418 and hygromycin at 15,000 cells/20 μL/well in Greiner 384-well black-walled, tissue culture (TC)-treated, clear-bottom plates (VWR). Cells were incubated overnight at 37° C. and 5% CO2. The next day, cells were washed using an ELX 405 (BioTek) with assay buffer; the final volume was then aspirated to 20 μL. Next, 20 μL of a 2.3 μM stock of Fluo-4/acetoxymethyl ester (Invitrogen, Carlsbad, CA), prepared as a 2.3 mM stock in DMSO and mixed in a 1:1 ratio with 10% (w/v) Pluronic F-127 and diluted in assay buffer, was added to the wells and the cell plates were incubated for 50 min at 37° C. and 5% CO2. Dye was removed by washing with the ELX 405 and the final volume was aspirated to 20 μL. Compound master plates were formatted in a 10-point concentration-response curve (CRC) format (1:3 dilutions) in 100% DMSO with a starting concentration of 10 or 1 mM using a BRAVO liquid handler (Agilent). Test compound CRCs were then transferred to daughter plates (240 nL) using the Echo acoustic plate reformatter (Labcyte, Sunnyvale, CA) and then diluted into assay buffer (40 μL) to a 2× stock using a Thermo Fisher Combi (Thermo Fisher Scientific, Waltham, MA).
Calcium flux was measured using the Functional Drug Screening System (FDSS) 6000 or 7000 (Hamamatsu Corporation, Tokyo, Japan) as an increase in the fluorescent static ratio. Compounds were applied to cells (20 μL, 2×) using the automated system of the FDSS at 2 seconds into the protocol and the data were collected at 1 Hz. At 143 s, 10 μL of an EC20 concentration of the muscarinic receptor agonist acetylcholine was added (5×), followed by the addition of 12 μL of an EC80 concentration of acetylcholine at the 268 s time point (5×). Agonist activity was analyzed as a concentration-dependent increase in calcium mobilization upon compound addition. Positive allosteric modulator activity was analyzed as a concentration-dependent increase in the EC20 acetylcholine response. Antagonist activity was analyzed as a concentration-dependent decrease in the EC80 acetylcholine response; for the purposes of the tables herein, an IC50 (inhibitory concentration 50) was calculated as a concentration-dependent decrease of the response elicited by an EC80 concentration of acetylcholine. Concentration-response curves were generated using a four-parameter logistical equation in XLFit curve fitting software (IDBS, Bridgewater, NJ) for Excel (Microsoft, Redmond, WA) or Prism (GraphPad Software, Inc., San Diego, CA) or the Dotmatics software platform (Dotmatics, Bishop's Stortford, UK). […]
Compounds were synthesized as described above. Activity (IC50 and Emin) was determined in the mAChR M4 cell-based functional assay as described above and the data are shown in Table 2.

Structure (SMILES) | remaining activity at 30 µM [%] | IC50 [nM]
[2H]C([2H])([C@H]1CCCCO1)N1C[C@H]2C[C@H](Nc3ccc(-c4cnccc4C(F)(F)F)nn3)C[C@H]2C1 [Compound 7, (3aR,5s,6aS)-2-(((R)-tetrahydro-2H-pyran-2-yl)methyl-d2)-N-(6-(4-(trifluoromethyl)pyridin-3-yl)pyridazin-3-yl)octahydrocyclopenta[c]pyrrol-5-amine] | 2 | 0.13
[2H]C([2H])([C@@H]1CCCCO1)N1C[C@H]2C[C@H](Nc3ccc(-c4cnccc4C(F)(F)F)nn3)C[C@H]2C1 [Compound 8, (3aR,5s,6aS)-2-(((S)-tetrahydro-2H-pyran-2-yl)methyl-d2)-N-(6-(4-(trifluoromethyl)pyridin-3-yl)pyridazin-3-yl)octahydrocyclopenta[c]pyrrol-5-amine] | 3 | 0.086
[2H]C([2H])(C1CCCOC1)N1C[C@H]2C[C@H](Nc3ccc(-c4cnccc4C(F)(F)F)nn3)C[C@H]2C1 (stereo partly drawn) [Compound 9, (3aR,5s,6aS)-2-((tetrahydro-2H-pyran-3-yl)methyl-d2)-N-(6-(4-(trifluoromethyl)pyridin-3-yl)pyridazin-3-yl)octahydrocyclopenta[c]pyrrol-5-amine] | 2 | 1
[2H]C([2H])(C1CCCCC1)N1C[C@H]2C[C@H](Nc3ccc(-c4cnccc4C(F)(F)F)nn3)C[C@H]2C1 [Compound 10, (3aR,5s,6aS)-2-(cyclohexylmethyl-d2)-N-(6-(4-(trifluoromethyl)pyridin-3-yl)pyridazin-3-yl)octahydrocyclopenta[c]pyrrol-5-amine] | 3 | 0.56
[2H]C([2H])(N1C[C@H]2C[C@H](Nc3ccc(-c4cnccc4C(F)(F)F)nn3)C[C@H]2C1)C1(F)CCOCC1 [Compound 11, (3aR,5s,6aS)-2-((4-fluorotetrahydro-2H-pyran-4-yl)methyl-d2)-N-(6-(4-(trifluoromethyl)pyridin-3-yl)pyridazin-3-yl)octahydrocyclopenta[c]pyrrol-5-amine] | 2 | 0.86
[2H]C1([2H])CC(C([2H])([2H])N2C[C@H]3C[C@H](Nc4ccc(-c5cnccc5C(F)(F)F)nn4)C[C@H]3C2)CC([2H])([2H])O1 [Compound 12, (3aR,5s,6aS)-2-((tetrahydro-2H-pyran-4-yl-2,2,6,6-d4)methyl-d2)-N-(6-(4-(trifluoromethyl)pyridin-3-yl)pyridazin-3-yl)octahydrocyclopenta[c]pyrrol-5-amine] | 2 | 0.77
[2H]C([2H])(C1CCOCC1)N1C[C@H]2C[C@H](Nc3ccc(-c4cnccc4C(F)F)nn3)C[C@H]2C1 [Compound 13, (3aR,5s,6aS)-N-(6-(4-(difluoromethyl)pyridin-3-yl)pyridazin-3-yl)-2-((tetrahydro-2H-pyran-4-yl)methyl-d2)octahydrocyclopenta[c]pyrrol-5-amine] | 4 | 1.2
[2H]C([2H])(C1CCOCC1)N1C[C@H]2C[C@H](Nc3nnc(-c4cnccc4C(F)(F)F)cc3C3CC3)C[C@H]2C1 [Compound 14, (3aR,5s,6aS)-N-(4-cyclopropyl-6-(4-(trifluoromethyl)pyridin-3-yl)pyridazin-3-yl)-2-((tetrahydro-2H-pyran-4-yl)methyl-d2)octahydrocyclopenta[c]pyrrol-5-amine] | 4 | 3.1
[2H]C([2H])(C1CCOCC1)N1C[C@H]2C[C@H](Nc3nnc(-c4cnccc4C(F)(F)F)cc3OC)C[C@H]2C1 [Compound 15, (3aR,5s,6aS)-N-(4-methoxy-6-(4-(trifluoromethyl)pyridin-3-yl)pyridazin-3-yl)-2-((tetrahydro-2H-pyran-4-yl)methyl-d2)octahydrocyclopenta[c]pyrrol-5-amine] | 7 | 2.4
[2H]C([2H])(C1CCOCC1)N1C[C@H]2C[C@H](Nc3nnc(-c4cnccc4C(F)(F)F)cc3C)C[C@H]2C1 [Compound 16, (3aR,5s,6aS)-N-(4-methyl-6-(4-(trifluoromethyl)pyridin-3-yl)pyridazin-3-yl)-2-((tetrahydro-2H-pyran-4-yl)methyl-d2)octahydrocyclopenta[c]pyrrol-5-amine] | 4 | 1.5
[2H]C([2H])(C1CCOCC1)N1C[C@H]2C[C@H](Nc3ccc(-c4cnc(C(F)(F)F)cc4C(F)(F)F)nn3)C[C@H]2C1 [Compound 17, (3aR,5s,6aS)-N-(6-(4,6-bis(trifluoromethyl)pyridin-3-yl)pyridazin-3-yl)-2-((tetrahydro-2H-pyran-4-yl)methyl-d2)octahydrocyclopenta[c]pyrrol-5-amine] | 26 | 2.8
[2H]C1([2H])CC(C([2H])([2H])N2C[C@H]3C[C@H](Nc4nnc(-c5cnccc5C(F)(F)F)cc4C)C[C@H]3C2)CC([2H])([2H])O1 [Compound 18, (3aR,5s,6aS)-N-(4-methyl-6-(4-(trifluoromethyl)pyridin-3-yl)pyridazin-3-yl)-2-((tetrahydro-2H-pyran-4-yl-2,2,6,6-d4)methyl-d2)octahydrocyclopenta[c]pyrrol-5-amine] | 4 | 1.1
[2H]C1([2H])CC(CN2C[C@H]3C[C@H](Nc4nnc(-c5cnccc5C(F)(F)F)cc4C)C[C@H]3C2)CC([2H])([2H])O1 [Compound 19, (3aR,5s,6aS)-N-(4-methyl-6-(4-(trifluoromethyl)pyridin-3-yl)pyridazin-3-yl)-2-((tetrahydro-2H-pyran-4-yl-2,2,6,6-d4)methyl)octahydrocyclopenta[c]pyrrol-5-amine] | 3 | 1.3
[2H]C([2H])(C1CCOCC1(C)C)N1C[C@H]2C[C@H](Nc3nnc(-c4cnccc4C(F)(F)F)cc3C)C[C@H]2C1 (stereo partly drawn) [Compound 20, (3aR,5s,6aS)-2-((3,3-dimethyltetrahydro-2H-pyran-4-yl)methyl-d2)-N-(4-methyl-6-(4-(trifluoromethyl)pyridin-3-yl)pyridazin-3-yl)octahydrocyclopenta[c]pyrrol-5-amine] | 2 | 6.4
[2H]C([2H])(C1CCOCC1(C)C)N1C[C@H]2C[C@H](Nc3nnc(-c4cnccc4C(F)(F)F)cc3OC)C[C@H]2C1 (stereo partly drawn) [Compound 21, (3aR,5s,6aS)-2-((3,3-dimethyltetrahydro-2H-pyran-4-yl)methyl-d2)-N-(4-methoxy-6-(4-(trifluoromethyl)pyridin-3-yl)pyridazin-3-yl)octahydrocyclopenta[c]pyrrol-5-amine] | 2 | 11
